# Measurements: US20260334439A1, “BCAT2 INHIBITORS” (Agios Pharmaceuticals, Inc., priority 2023, published 2026)
# pIC50: −log10 of the molar value.
# Legend:
# BCAT2 [1] = biological target: T1, BCAT2 (Homo sapiens, UniProt O15382); assay: BCAT2 cell inhibition using engineered A549 cells (MUT KO, BCAT1 KO; 13C6-KMV formation by LC-MS/MS); assay type: cell-based; parameters: expressed endogenous BCAT2; endogenous in cells; host or cells: A549 cells, MUT knockout and BCAT1 knockout
# T1 sequence (O15382 28-392): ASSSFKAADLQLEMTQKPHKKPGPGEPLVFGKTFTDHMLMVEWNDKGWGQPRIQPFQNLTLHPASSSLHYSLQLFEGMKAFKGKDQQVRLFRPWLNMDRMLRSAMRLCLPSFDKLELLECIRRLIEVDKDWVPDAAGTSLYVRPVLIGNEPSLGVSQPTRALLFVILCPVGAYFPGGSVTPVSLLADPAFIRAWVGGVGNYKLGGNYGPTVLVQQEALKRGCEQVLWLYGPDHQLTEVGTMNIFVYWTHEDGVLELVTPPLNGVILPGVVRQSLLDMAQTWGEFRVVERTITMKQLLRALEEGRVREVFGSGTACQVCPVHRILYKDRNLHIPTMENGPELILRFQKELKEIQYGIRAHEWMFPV
# From the text: Endogenous Methylmalonyl-CoA Mutase (MUT) and Branched Chain Aminotransferase 1 (BCAT1) in A549 cells was knocked out by CRISPR/CAS9 using the targeting system from TransOMIC Technologies. The following guide sequence was cloned into pCLIP-ALL-EFS-Blast vector to target human MUT: […] (SEQ ID NO: 35). The following guide sequence was cloned into pCLIP-ALL-EFS-Puro vector to target human BCAT1: […] (SEQ ID NO: 36). The resulting plasmids were co-transfected into 293T cells with VSV-G, P-PEX, and Fugene-6. Lentivirus was harvested and A549 cells were first transduced with lentivirus targeting MUT and polybrene. After genetic selection with blasticidin clonal selection was performed and validated via western blot analysis to confirm MUT was no longer expressed. These MUT KO cells were then transduced with lentivirus targeting BCAT1 and polybrene. After selection with puromycin clonal selection was performed and clones were validated via western blot analysis to confirm BCAT1 was no longer expressed in these cells. The result was an engineered A549 cell line that expressed endogenous BCAT2.
# For KMV cell assays, on day 1, 25,000 cells/100 μL EMEM (10% FBS) were seeded in each well of a 96-well plate. On day 2, medium was replaced with 50 μL fresh EMEM (10% dialyzed FBS) containing 2× the assay concentration of experimental compound. After 15 minutes, 50 μL of 800 uM ^15N,^13C6-Isoleucine in EMEM (10% dialyzed FBS) was added to each well and incubated for 24 hours. On day 3, 50 μL of media from each well was collected and transferred to another 96-well plate for ^13C6-3-Methyl-2-Oxopentanoic Acid (KMV) analysis via LC-MS/MS. In the remaining assay wells 50 μL of Promega Glo CTG reagent was added and luminescence was measured as a cell viability readout.
# For LC-MS/MS analysis 5 μL of cell assay media from each well was transferred to a 96-well plate and 45 μL of ACN:0.1% NaOH (50:50, v/v)^+0.20 nM d8-KMV was added and mixed on a shaker. 15 μL was transferred to a new 96-well plate and 15 μL of 10 mg/mL PFBHA solution was added and mixed on the shaker. The reaction was placed on ice for 30 minutes and quenched with 10 μL of ACN: Acetone (50:50, v/v) on a shaker. The resulting mixture was diluted with 100 μL of ACN:0.1% NaOH (50:50, v/v) on a shaker. 10 μL of sample were injected on the Shimadzu 20AD LC-MS/MS to quantify ^13C6-KMV.
# Where a compound was tested multiple times, the average value of the tests is reported.
# BCAT2 [2] = biological target: T1, BCAT2; assay: BCAT2 in vitro enzyme inhibition assay (hBCAT2, glutamate dehydrogenase/diaphorase/resazurin coupled fluorescence read); assay type: biochemical; settings: hBCAT2, 1 h preincubation at 25° C., one hour reaction; average where tested multiple times
# Method in brief: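 hBCAT2 (0.33 μg/mL in mix) preincubated 1 h at 25 °C with compound (top 100 μM, 3-fold, 10 points) in Tris pH 8.0/NaCl/BSA; substrate mix added (L-leucine, α-ketoglutarate, GDH, NAD, diaphorase, resazurin), quenched with SDS after 1 h, fluorescence Ex 540/Em 590; duplicates, repeat tests averaged.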
SMILES,pIC50 (BCAT2 [1]),pIC50 (BCAT2 [2]),"pIC50 (BCAT2 [1]; read-out: BCAT2 Cell Inhibition (IC50), engineered A549 cells, 24 hours, 13C6-KMV in media, average where tested multiple times)"
"CN1C[C@H](NC(=O)c2cc(Cl)ccn2)C[C@H](n2c(-c3ccccc3F)nc3cnc(-c4nc[nH]n4)cc32)C1 [Example 130, 4-chloro-N-((3R,5S)-5-(2-(2-fluorophenyl)-6-(1H-1,2,4-triazol-3-yl)-1H-imidazo[4,5-c]pyridin-1-yl)-1-methylpiperidin-3-yl)picolinamide]",> 7.00,> 7.00,–
"O=C1c2cccc(F)c2CN1[C@H]1CCC[C@@H](n2c(-c3ccccc3F)nc3cnc(-c4nc[nH]n4)cc32)C1 [Example 177, 4-fluoro-2-((1S,3R)-3-(2-(2-fluorophenyl)-6-(1H-1,2,4-triazol-3-yl)-1H-imidazo[4,5-c]pyridin-1-yl)cyclohexyl)isoindolin-1-one]",6.30 to 7.00,> 7.00,–
"O=C(N[C@H]1CCC[C@@H](n2c(-c3c(O)cccc3F)nc3cnc(-c4nc[nH]n4)cc32)C1)c1cc(Cl)ccn1 [Example 70, 4-chloro-N-((1S,3R)-3-(2-(2-fluoro-6-hydroxyphenyl)-6-(1H-1,2,4-triazol-3-yl)-1H-imidazo[4,5-c]pyridin-1-yl)cyclohexyl)picolinamide]",> 7.00,> 7.00,–
"CC(=O)N1C[C@H](N2Cc3ccc(F)cc3C2=O)C[C@H](n2c(-c3ccccc3F)nc3cnc(-n4nccn4)cc32)C1 [Example 200, 2-((3R,5S)-1-acetyl-5-(2-(2-fluorophenyl)-6-(2H-1,2,3-triazol-2-yl)-1H-imidazo[4,5-c]pyridin-1-yl)piperidin-3-yl)-6-fluoroisoindolin-1-one]",> 7.00,> 7.00,–
"O=C(N[C@H]1CCC[C@@H](n2c(-c3ncccc3F)nc3cnc(-c4nc[nH]n4)cc32)C1)c1cc(F)ccn1 [Example 16, 4-fluoro-N-((1S,3R)-3-(2-(3-fluoropyridin-2-yl)-6-(1H-1,2,4-triazol-3-yl)-1H-imidazo[4,5-c]pyridin-1-yl)cyclohexyl)picolinamide]",6.30 to 7.00,> 7.00,–
"COc1ccc(Cl)cc1C(=O)N[C@H]1CCCC[C@@H](n2c(-c3ccccc3F)nc3cnc(-c4nc[nH]n4)cc32)[C@@H]1O [Example 105, 5-chloro-N-((1S,2R,3R)-3-(2-(2-fluorophenyl)-6-(1H-1,2,4-triazol-3-yl)-1H-imidazo[4,5-c]pyridin-1-yl)-2-hydroxycycloheptyl)-2-methoxybenzamide]",> 7.00,> 7.00,–
"O=C(N[C@H]1CCC[C@@H](n2c(-c3ccccc3F)nc3cnc(-n4nccn4)cc32)C1)c1cc(Cl)ccc1OCCO [Example 68, 5-chloro-N-((1S,3R)-3-(2-(2-fluorophenyl)-6-(2H-1,2,3-triazol-2-yl)-1H-imidazo[4,5-c]pyridin-1-yl)cyclohexyl)-2-(2-hydroxyethoxy)benzamide]",> 7.00,> 7.00,–
"O=C(N[C@H]1CCC[C@@H](n2c(-c3ccccc3F)nc3cnc(-c4nc[nH]n4)cc32)C1)c1ncccc1F [Example 11, 3-fluoro-N-((1S,3R)-3-(2-(2-fluorophenyl)-6-(1H-1,2,4-triazol-3-yl)-1H-imidazo[4,5-c]pyridin-1-yl)cyclohexyl)picolinamide]",6.00 to 6.30,> 7.00,–
"COc1ccccc1C(=O)N[C@H]1CCC[C@@H](n2c(-c3ccccc3F)nc3cnc(-c4nc[nH]n4)cc32)C1 [Example 5, N-((1S,3R)-3-(2-(2-fluorophenyl)-6-(1H-1,2,4-triazol-3-yl)-1H-imidazo[4,5-c]pyridin-1-yl)cyclohexyl)-2-methoxybenzamide]",> 7.00,> 7.00,–
"CN1C[C@@H](NC(=O)c2cc(Cl)ccn2)C[C@@H](n2c(-c3ccccc3F)nc3cnc(-c4nc[nH]n4)cc32)C1 [Example 129, 4-chloro-N-((3S,5R)-5-(2-(2-fluorophenyl)-6-(1H-1,2,4-triazol-3-yl)-1H-imidazo[4,5-c]pyridin-1-yl)-1-methylpiperidin-3-yl)picolinamide]",–,6.30 to 7.00,< 6.00
